Data published in ChEMBL document CHEMBL2434940, “Synthesis and antitumor activities of novel α-aminophosphonates dehydroabietic acid derivatives” (Bioorg Med Chem Lett, 2013).
pIC50: −log10 of the molar value. Calls of active or inactive are those of the source. The rule behind the calls is not given here.

What was measured:
NCI-H460 [1] = experiment: Cytotoxicity against human NCI-H460 cells after 48 hrs by MTT assay; format: functional, cell-based; conditions: NCI-H460, 48 h
A549 = experiment: Cytotoxicity against human A549 cells after 48 hrs by MTT assay; format: functional, cell-based; conditions: A549, 48 h
HepG2 = experiment: Cytotoxicity against human HepG2 cells after 48 hrs by MTT assay; format: functional, cell-based; conditions: HepG2, 48 h
SK-OV-3 = experiment: Cytotoxicity against human SKOV3 cells after 48 hrs by MTT assay; format: functional, cell-based; conditions: SK-OV-3, 48 h
NCI-H460 [2] = experiment: Induction of apoptosis in human NCI-H460 cells assessed as membrane blebbing at 5 uM after 12 to 24 hrs by AO/EB staining-based fluorescence microscopic analysis; format: functional, cell-based
NCI-H460 [3] = experiment: Cell cycle arrest in human NCI-H460 cells assessed as accumulation at S phase at IC50 by propidium iodide staining-based FACS flow cytometric analysis relative to control; format: functional
NCI-H460 [4] = experiment: Induction of apoptosis in human NCI-H460 cells assessed as necrotic/late apoptotic cells at 5 uM after 12 hrs by Annexin V-FITC and propidium iodide staining-based FACS flow cytometric analysis (reference value: 1.9%); format: functional
NCI-H460 [5] = experiment: Induction of apoptosis in human NCI-H460 cells assessed as apoptotic ratio at 5 uM after 12 hrs by Annexin V-FITC and propidium iodide staining-based FACS flow cytometric analysis relative to control; format: functional
NCI-H460 [6] = experiment: Induction of apoptosis in human NCI-H460 cells assessed as loss of mitochondria membrane potential at 5 uM after 12 to 24 hrs by JC-1 staining-based fluorescence microscopic analysis; format: functional, cell-based
NCI-H460 [7] = experiment: Induction of apoptosis in human NCI-H460 cells assessed as cell budding at 5 uM after 12 to 24 hrs by AO/EB staining-based fluorescence microscopic analysis; format: functional
NCI-H460 [8] = experiment: Cytotoxicity against human NCI-H460 cells at 5 uM after 12 to 24 hrs by AO/EB staining-based fluorescence microscopic analysis; format: cell-based; conditions: nci-h460, 5 µM
NCI-H460 [9] = experiment: Induction of apoptosis in human NCI-H460 cells assessed as early apoptotic cells at 5 uM after 12 hrs by Annexin V-FITC and propidium iodide staining-based FACS flow cytometric analysis (reference value: 3.8%); format: functional
NCI-H460 [10] = experiment: Induction of apoptosis in human NCI-H460 cells assessed as necrotic/late apoptotic cells at 5 uM after 24 hrs by Annexin V-FITC and propidium iodide staining-based FACS flow cytometric analysis (reference value: 1.9%); format: functional
NCI-H460 [11] = experiment: Induction of apoptosis in human NCI-H460 cells assessed as apoptotic ratio at 3 uM after 12 hrs by Annexin V-FITC and propidium iodide staining-based FACS flow cytometric analysis relative to control; format: functional
NCI-H460 [12] = experiment: Induction of apoptosis in human NCI-H460 cells assessed as pycnosis at 5 uM after 12 to 24 hrs by AO/EB staining-based fluorescence microscopic analysis; format: functional, cell-based
NCI-H460 [13] = experiment: Induction of apoptosis in human NCI-H460 cells at 5 uM after 12 to 24 hrs by Hoechst 33258 staining-based fluorescence microscopic analysis; format: functional, cell-based
NCI-H460 [14] = experiment: Induction of apoptosis in human NCI-H460 cells after 12 hrs by Annexin V-FITC and propidium iodide staining-based FACS flow cytometric analysis; format: functional, cell-based
NCI-H460 [15] = experiment: Cell cycle arrest in human NCI-H460 cells assessed as accumulation at G2 phase at IC50 by propidium iodide staining-based FACS flow cytometric analysis relative to control; format: functional
NCI-H460 [16] = experiment: Induction of apoptosis in human NCI-H460 cells assessed as early apoptotic cells at 5 uM after 24 hrs by Annexin V-FITC and propidium iodide staining-based FACS flow cytometric analysis (reference value: 3.8%); format: functional
NCI-H460 [17] = experiment: Cell cycle arrest in human NCI-H460 cells assessed as accumulation at G1 phase at IC50 by propidium iodide staining-based FACS flow cytometric analysis relative to control; format: functional
NCI-H460 [18] = experiment: Induction of apoptosis in human NCI-H460 cells assessed as necrotic/late apoptotic cells at 45 uM after 24 hrs by Annexin V-FITC and propidium iodide staining-based FACS flow cytometric analysis (reference value: 0.8%); format: functional
NCI-H460 [19] = experiment: Induction of apoptosis in human NCI-H460 cells assessed as loss of mitochondria membrane potential at 45 uM after 24 hrs by JC-1 staining-based fluorescence microscopic analysis; format: functional, cell-based
NCI-H460 [20] = experiment: Induction of apoptosis in human NCI-H460 cells assessed as early apoptotic cells at 45 uM after 24 hrs by Annexin V-FITC and propidium iodide staining-based FACS flow cytometric analysis (reference value: 1.5%); format: functional

| Compound | pIC50 (NCI-H460 [1]) | pIC50 (A549) | pIC50 (HepG2) | pIC50 (SK-OV-3) | further results |
| --- | --- | --- | --- | --- | --- |
| CCOP(=O)(OCC)C(NC(=S)NC(=O)[C@]1(C)CCC[C@]2(C)c3ccc(C(C)C)cc3CC[C@@H]12)c1ccc(C)cc1 (stereo partly specified) | 4.58 | 4.66 | 4.52 | 4.85 |  |
| CCOP(=O)(OCC)C(NC(=S)NC(=O)[C@]1(C)CCC[C@]2(C)c3ccc(C(C)C)cc3CC[C@@H]12)c1cccc(Br)c1 (stereo partly specified) | 4.83 | 4.71 | 4.82 | 4.68 |  |
| CCOP(=O)(OCC)C(NC(=S)NC(=O)[C@]1(C)CCC[C@]2(C)c3ccc(C(C)C)cc3CC[C@@H]12)c1ccccc1 (stereo partly specified) | 4.55 | 4.62 | 4.82 | 4.92 |  |
| CCOP(=O)(OCC)C(NC(=S)NC(=O)[C@]1(C)CCC[C@]2(C)c3ccc(C(C)C)cc3CC[C@@H]12)c1ccc(Cl)cc1 (stereo partly specified) | 4.71 | 4.90 | 4.58 | 4.84 |  |
| CCOP(=O)(OCC)C(NC(=S)NC(=O)[C@]1(C)CCC[C@]2(C)c3ccc(C(C)C)cc3CC[C@@H]12)c1ccc(OC)cc1 (stereo partly specified) | 4.60 | 4.81 | 4.49 | 4.67 |  |
| CCOP(=O)(OCC)C(NC(=S)NC(=O)[C@]1(C)CCC[C@]2(C)c3ccc(C(C)C)cc3CC[C@@H]12)c1ccccc1Br (stereo partly specified) | 4.73 | 4.65 | 4.57 | 4.76 |  |
| CCOP(=O)(OCC)C(NC(=S)NC(=O)[C@]1(C)CCC[C@]2(C)c3ccc(C(C)C)cc3CC[C@@H]12)c1cccc(F)c1 (stereo partly specified) | 4.56 | 4.61 | 4.50 | 4.86 |  |
| CCOP(=O)(OCC)C(NC(=S)NC(=O)[C@]1(C)CCC[C@]2(C)c3ccc(C(C)C)cc3CC[C@@H]12)c1ccccc1Cl (stereo partly specified) | 4.51 | 4.71 | 4.60 | 4.82 |  |
| CCOP(=O)(OCC)C(NC(=S)NC(=O)[C@]1(C)CCC[C@]2(C)c3ccc(C(C)C)cc3CC[C@@H]12)c1cccc(C)c1 (stereo partly specified) | 4.75 | 4.73 | 4.43 | 4.78 |  |
| CCOP(=O)(OCC)C(NC(=S)NC(=O)[C@]1(C)CCC[C@]2(C)c3ccc(C(C)C)cc3CC[C@@H]12)c1cccc(Cl)c1 (stereo partly specified) | 4.44 | 4.58 | < 4.30 | 4.71 |  |
| CCOP(=O)(OCC)C(NC(=S)NC(=O)[C@]1(C)CCC[C@]2(C)c3ccc(C(C)C)cc3CC[C@@H]12)c1ccccc1F (stereo partly specified) | 4.75 | 4.85 | 4.94 | 5.00 |  |
| CCOP(=O)(OCC)C(NC(=S)NC(=O)[C@]1(C)CCC[C@]2(C)c3ccc(C(C)C)cc3CC[C@@H]12)c1ccc(Br)cc1 (stereo partly specified) | 4.73 | 4.69 | 4.62 | 4.85 |  |
| CCOP(=O)(OCC)C(NC(=S)NC(=O)[C@]1(C)CCC[C@]2(C)c3ccc(C(C)C)cc3CC[C@@H]12)c1cccc(OC)c1 (stereo partly specified) | 4.80 | 4.53 | 4.74 | 5.00 |  |
| CCOP(=O)(OCC)C(NC(=S)NC(=O)[C@]1(C)CCC[C@]2(C)c3ccc(C(C)C)cc3CC[C@@H]12)c1ccccc1OC (stereo partly specified) | 5.48 | 4.74 | 5.11 | 4.72 | Activity (NCI-H460 [2]): Active; Activity (NCI-H460 [3]): 23.49%; Activity (NCI-H460 [4]): 5.2%; Activity (NCI-H460 [5]): 51.5%; Activity (NCI-H460 [6]): Active; Activity (NCI-H460 [7]): Active; Activity (NCI-H460 [8]): Non-toxic; Activity (NCI-H460 [9]): 14.3%; Activity (NCI-H460 [10]): 16.2%; Activity (NCI-H460 [11]): 19.5%; Activity (NCI-H460 [12]): Active; Activity (NCI-H460 [13]): Active; Activity (NCI-H460 [14]): Dose-dependent effect; Activity (NCI-H460 [15]): 13.7%; Activity (NCI-H460 [16]): 35.3%; Activity (NCI-H460 [17]): 62.8% |
| O=c1[nH]cc(F)c(=O)[nH]1 [FLUOROURACIL] |  |  | 4.52 |  | Activity (NCI-H460 [18]): 6.5%; Activity (NCI-H460 [3]): 28.07%; Activity (NCI-H460 [19]): Active; Activity (NCI-H460 [15]): 0%; Activity (NCI-H460 [20]): 16.8%; Activity (NCI-H460 [17]): 71.93% |
| CCOP(=O)(OCC)C(NC(=S)NC(=O)[C@]1(C)CCC[C@]2(C)c3ccc(C(C)C)cc3CC[C@@H]12)c1ccc2ccccc2c1 (stereo partly specified) | 4.64 | 4.34 | < 4.30 | < 4.30 |  |
| CCOP(=O)(OCC)C(NC(=S)NC(=O)[C@]1(C)CCC[C@]2(C)c3ccc(C(C)C)cc3CC[C@@H]12)c1cccc2ccccc12 (stereo partly specified) | 4.49 | 4.55 | < 4.30 | 4.72 |  |
| CCOP(=O)(OCC)C(NC(=S)NC(=O)[C@]1(C)CCC[C@]2(C)c3ccc(C(C)C)cc3CC[C@@H]12)c1ccc(F)cc1 (stereo partly specified) | 5.36 | 4.63 | 4.99 | 4.87 |  |
